Laboratory results: US12239627B2, “Method of treating conditions related to the PGI2 receptor” (Arena Pharmaceuticals, Inc., priority 2014, dated 2025)

Experiment: Phase 1 multiple ascending dose, dose titration study with healthy subjects (adverse events, tolerated dose)
Assay type: in vivo, human
Settings: for Adverse Events (no. of subjects) leading to Decrease of Dose: Abdominal pain / Adverse Events (no. of subjects) leading to Decrease of Dose: Arthralgia / Adverse Events (no. of subjects) leading to Decrease of Dose: Chest discomfort / Adverse Events (no. of subjects) leading to Decrease of Dose: Chest pain / Adverse Events (no. of subjects) leading to Decrease of Dose: Diarrhoea / Adverse Events (no. of subjects) leading to Decrease of Dose: Dizziness / Adverse Events (no. of subjects) leading to Decrease of Dose: Headache / Adverse Events (no. of subjects) leading to Decrease of Dose: Jaw pain / Adverse Events (no. of subjects) leading to Decrease of Dose: Myalgia / Adverse Events (no. of subjects) leading to Decrease of Dose: Nausea / Adverse Events (no. of subjects) leading to Decrease of Dose: Palpitations / Adverse Events (no. of subjects) leading to Decrease of Dose: Priapism / Adverse Events (no. of subjects) leading to Decrease of Dose: Vomiting: Cohort 3, twice daily
Description: This study was a phase 1, randomized, double-blind, placebo-controlled, multiple-dose, dose titration study. A titration interval of 6 days was employed, with each dose being administered for at least 5 days. One goal was to determine the effect of dose titration on adverse effects.
In each of two subject cohorts, Cohort 1 and Cohort 2, subjects were treated at each dose level for duration of 5 days with exception of the last dose level which included 7 days of treatment.
The protocol was amended to provide for an additional cohort, Cohort 3, in order to evaluate a different dose escalation regimen, as disclosed below.
Cohorts 1 and 2: Two groups of 15 subjects were enrolled and randomized to receive placebo (5 subjects per Cohort) or a starting dose of 0.05 mg Compound 1 (10 subjects per Cohort) on Day I. Once daily (q.d.) dosing continued through 5 days. If tolerated, the next dose escalation (placebo or 0.1 mg q.d. Compound 1) occurred on Day 6 and this dose was administered daily through Day 10.
Subsequent dose escalations were to occur in the same manner every 6th day for up to 3 additional dose escalations if tolerated (placebo or 0.2, 0.3, and 0.4 mg Compound 1) with the final dose maintained for a duration of 7 days. The dose could be decreased (“de-escalated”) or increased (“re-escalated”) based on assessment of safety and tolerability.
Cohort 3: One group of 25 subjects (S placebo and 20 active) were enrolled and randomized to receive a starting dose of 0.01 mg Compound 1 twice daily or placebo on Day 1. Twice daily dosing continued through 5 days. If tolerated, the next dose escalation (placebo or Compound 1 0.02 mg twice daily) occurred on Day 6 and this dose was administered daily through Day 10. Subsequent dose escalations were to occur in the same manner every 6th day for up to 4 additional dose escalations if tolerated (placebo or 0.03, 0.04. 0.05, and 0.07 mg twice daily Compound 1). The dose could be decreased (“de-escalated”) or increased (“re-escalated”) based on assessment of safety and tolerability. The doses tested in this cohort were 0.01, 0.02, 0.03, 0.04, 0.05, and 0.07 mg administered twice daily for a total daily dose of 0.02, 0.04, 0.06, 0.08, 0.1, and 0.14 mg, respectively.
Compound 1 capsules were provided as 0.01 mg (all Cohorts) and 0.1 mg (Cohorts 1 and 2 only) strengths.

O=C(O)COC[C@H]1CC[C@H](COC(=O)N(c2ccccc2)c2ccc(Cl)cc2)CC1 [Compound 1, 2-(((1r,4r)-4-(((4-chlorophenyl)(phenyl)carbamoyloxy)methyl)cyclohexyl)methoxy)acetic acid]
Subjects who received 0.04 mg as highest dose for at least 3 days (Cohort 3): 0.04 mg-20 subjects | Subjects who received 0.06 mg as highest dose for at least 3 days (Cohort 3): 0.06 mg-19 subjects | Subjects who received 0.08 mg as highest dose for at least 3 days (Cohort 3): 0.08 mg-11 subjects | Subjects who received 0.10 mg as highest dose for at least 3 days (Cohort 3): 0.10 mg-8 subjects | Subjects who received 0.14 mg as highest dose for at least 3 days (Cohort 3): 0.14 mg-3 subjects | Subjects with Final Compound 1 Total Daily Dose of 0.04 mg (Cohort 3): 0.04 mg-4 subjects | Subjects with Final Compound 1 Total Daily Dose of 0.06 mg (Cohort 3): 0.06 mg-6 subjects | Subjects with Final Compound 1 Total Daily Dose of 0.08 mg (Cohort 3): 0.08 mg-2 subjects | Subjects with Final Compound 1 Total Daily Dose of 0.10 mg (Cohort 3): 0.10 mg-6 subjects | Subjects with Final Compound 1 Total Daily Dose of 0.14 mg (Cohort 3): 0.14 mg-2 subjects | Adverse Events (no. of subjects) leading to Decrease of Dose: Abdominal pain (0.01 mg (N = 20)): 0 subjects | Adverse Events (no. of subjects) leading to Decrease of Dose: Arthralgia (0.01 mg (N = 20)): 0 subjects | Adverse Events (no. of subjects) leading to Decrease of Dose: Chest discomfort (0.01 mg (N = 20)): 0 subjects | Adverse Events (no. of subjects) leading to Decrease of Dose: Chest pain (0.01 mg (N = 20)): 0 subjects | Adverse Events (no. of subjects) leading to Decrease of Dose: Diarrhoea (0.01 mg (N = 20)): 0 subjects | Adverse Events (no. of subjects) leading to Decrease of Dose: Dizziness (0.01 mg (N = 20)): 0 subjects | Adverse Events (no. of subjects) leading to Decrease of Dose: Headache (0.01 mg (N = 20)): 1 subjects | Adverse Events (no. of subjects) leading to Decrease of Dose: Jaw pain (0.01 mg (N = 20)): 0 subjects | Adverse Events (no. of subjects) leading to Decrease of Dose: Myalgia (0.01 mg (N = 20)): 1 subjects | Adverse Events (no. of subjects) leading to Decrease of Dose: Nausea (0.01 mg (N = 20)): 0 subjects | Adverse Events (no. of subjects) leading to Decrease of Dose: Palpitations (0.01 mg (N = 20)): 0 subjects | Adverse Events (no. of subjects) leading to Decrease of Dose: Priapism (0.01 mg (N = 20)): 0 subjects | Adverse Events (no. of subjects) leading to Decrease of Dose: Vomiting (0.01 mg (N = 20)): 0 subjects | Adverse Events (no. of subjects) leading to Decrease of Dose: Abdominal pain (0.02 mg (N = 20)): 0 subjects | Adverse Events (no. of subjects) leading to Decrease of Dose: Arthralgia (0.02 mg (N = 20)): 1 subjects | Adverse Events (no. of subjects) leading to Decrease of Dose: Chest discomfort (0.02 mg (N = 20)): 0 subjects | Adverse Events (no. of subjects) leading to Decrease of Dose: Chest pain (0.02 mg (N = 20)): 1 subjects | Adverse Events (no. of subjects) leading to Decrease of Dose: Diarrhoea (0.02 mg (N = 20)): 1 subjects | Adverse Events (no. of subjects) leading to Decrease of Dose: Dizziness (0.02 mg (N = 20)): 0 subjects | Adverse Events (no. of subjects) leading to Decrease of Dose: Headache (0.02 mg (N = 20)): 6 subjects | Adverse Events (no. of subjects) leading to Decrease of Dose: Jaw pain (0.02 mg (N = 20)): 0 subjects | Adverse Events (no. of subjects) leading to Decrease of Dose: Myalgia (0.02 mg (N = 20)): 2 subjects | Adverse Events (no. of subjects) leading to Decrease of Dose: Nausea (0.02 mg (N = 20)): 3 subjects | Adverse Events (no. of subjects) leading to Decrease of Dose: Palpitations (0.02 mg (N = 20)): 1 subjects | Adverse Events (no. of subjects) leading to Decrease of Dose: Priapism (0.02 mg (N = 20)): 0 subjects | Adverse Events (no. of subjects) leading to Decrease of Dose: Vomiting (0.02 mg (N = 20)): 1 subjects | Adverse Events (no. of subjects) leading to Decrease of Dose: Abdominal pain (0.03 mg (N = 20)): 1 subjects | Adverse Events (no. of subjects) leading to Decrease of Dose: Arthralgia (0.03 mg (N = 20)): 0 subjects | Adverse Events (no. of subjects) leading to Decrease of Dose: Chest discomfort (0.03 mg (N = 20)): 1 subjects | Adverse Events (no. of subjects) leading to Decrease of Dose: Chest pain (0.03 mg (N = 20)): 0 subjects | Adverse Events (no. of subjects) leading to Decrease of Dose: Diarrhoea (0.03 mg (N = 20)): 1 subjects | Adverse Events (no. of subjects) leading to Decrease of Dose: Dizziness (0.03 mg (N = 20)): 0 subjects | Adverse Events (no. of subjects) leading to Decrease of Dose: Headache (0.03 mg (N = 20)): 1 subjects | Adverse Events (no. of subjects) leading to Decrease of Dose: Jaw pain (0.03 mg (N = 20)): 0 subjects | Adverse Events (no. of subjects) leading to Decrease of Dose: Myalgia (0.03 mg (N = 20)): 1 subjects | Adverse Events (no. of subjects) leading to Decrease of Dose: Nausea (0.03 mg (N = 20)): 1 subjects | Adverse Events (no. of subjects) leading to Decrease of Dose: Palpitations (0.03 mg (N = 20)): 0 subjects | Adverse Events (no. of subjects) leading to Decrease of Dose: Priapism (0.03 mg (N = 20)): 1 subjects | Adverse Events (no. of subjects) leading to Decrease of Dose: Vomiting (0.03 mg (N = 20)): 0 subjects | Adverse Events (no. of subjects) leading to Decrease of Dose: Abdominal pain (0.04 mg (N = 12)): 0 subjects | Adverse Events (no. of subjects) leading to Decrease of Dose: Arthralgia (0.04 mg (N = 12)): 0 subjects | Adverse Events (no. of subjects) leading to Decrease of Dose: Chest discomfort (0.04 mg (N = 12)): 0 subjects | Adverse Events (no. of subjects) leading to Decrease of Dose: Chest pain (0.04 mg (N = 12)): 0 subjects | Adverse Events (no. of subjects) leading to Decrease of Dose: Diarrhoea (0.04 mg (N = 12)): 0 subjects | Adverse Events (no. of subjects) leading to Decrease of Dose: Dizziness (0.04 mg (N = 12)): 2 subjects | Adverse Events (no. of subjects) leading to Decrease of Dose: Headache (0.04 mg (N = 12)): 1 subjects | Adverse Events (no. of subjects) leading to Decrease of Dose: Jaw pain (0.04 mg (N = 12)): 0 subjects | Adverse Events (no. of subjects) leading to Decrease of Dose: Myalgia (0.04 mg (N = 12)): 0 subjects | Adverse Events (no. of subjects) leading to Decrease of Dose: Nausea (0.04 mg (N = 12)): 0 subjects | Adverse Events (no. of subjects) leading to Decrease of Dose: Palpitations (0.04 mg (N = 12)): 0 subjects | Adverse Events (no. of subjects) leading to Decrease of Dose: Priapism (0.04 mg (N = 12)): 0 subjects | Adverse Events (no. of subjects) leading to Decrease of Dose: Vomiting (0.04 mg (N = 12)): 0 subjects | Adverse Events (no. of subjects) leading to Decrease of Dose: Abdominal pain (0.05 mg (N = 8)): 1 subjects | Adverse Events (no. of subjects) leading to Decrease of Dose: Arthralgia (0.05 mg (N = 8)): 0 subjects | Adverse Events (no. of subjects) leading to Decrease of Dose: Chest discomfort (0.05 mg (N = 8)): 0 subjects | Adverse Events (no. of subjects) leading to Decrease of Dose: Chest pain (0.05 mg (N = 8)): 0 subjects | Adverse Events (no. of subjects) leading to Decrease of Dose: Diarrhoea (0.05 mg (N = 8)): 0 subjects | Adverse Events (no. of subjects) leading to Decrease of Dose: Dizziness (0.05 mg (N = 8)): 1 subjects | Adverse Events (no. of subjects) leading to Decrease of Dose: Headache (0.05 mg (N = 8)): 0 subjects | Adverse Events (no. of subjects) leading to Decrease of Dose: Jaw pain (0.05 mg (N = 8)): 0 subjects | Adverse Events (no. of subjects) leading to Decrease of Dose: Myalgia (0.05 mg (N = 8)): 0 subjects | Adverse Events (no. of subjects) leading to Decrease of Dose: Nausea (0.05 mg (N = 8)): 0 subjects | Adverse Events (no. of subjects) leading to Decrease of Dose: Palpitations (0.05 mg (N = 8)): 0 subjects | Adverse Events (no. of subjects) leading to Decrease of Dose: Priapism (0.05 mg (N = 8)): 0 subjects | Adverse Events (no. of subjects) leading to Decrease of Dose: Vomiting (0.05 mg (N = 8)): 0 subjects | Adverse Events (no. of subjects) leading to Decrease of Dose: Abdominal pain (0.07 mg (N = 4)): 0 subjects | Adverse Events (no. of subjects) leading to Decrease of Dose: Arthralgia (0.07 mg (N = 4)): 1 subjects | Adverse Events (no. of subjects) leading to Decrease of Dose: Chest discomfort (0.07 mg (N = 4)): 0 subjects | Adverse Events (no. of subjects) leading to Decrease of Dose: Chest pain (0.07 mg (N = 4)): 0 subjects | Adverse Events (no. of subjects) leading to Decrease of Dose: Diarrhoea (0.07 mg (N = 4)): 0 subjects | Adverse Events (no. of subjects) leading to Decrease of Dose: Dizziness (0.07 mg (N = 4)): 0 subjects | Adverse Events (no. of subjects) leading to Decrease of Dose: Headache (0.07 mg (N = 4)): 1 subjects | Adverse Events (no. of subjects) leading to Decrease of Dose: Jaw pain (0.07 mg (N = 4)): 1 subjects | Adverse Events (no. of subjects) leading to Decrease of Dose: Myalgia (0.07 mg (N = 4)): 0 subjects | Adverse Events (no. of subjects) leading to Decrease of Dose: Nausea (0.07 mg (N = 4)): 1 subjects | Adverse Events (no. of subjects) leading to Decrease of Dose: Palpitations (0.07 mg (N = 4)): 0 subjects
